Assay results as given in ChEMBL document CHEMBL3991601, “The target landscape of clinical kinase drugs” (Science, 2017).
The source made the active and inactive calls.

molecular target: T1, Glycogen phosphorylase, liver form (Homo sapiens, UniProt P06737); type: subcellular, K-562, COLO 205, SK-N-BE(2) and MV-4-11, Cell lysate; conditions: read-out: Kd apparent
T1 sequence (P06737 whole entry): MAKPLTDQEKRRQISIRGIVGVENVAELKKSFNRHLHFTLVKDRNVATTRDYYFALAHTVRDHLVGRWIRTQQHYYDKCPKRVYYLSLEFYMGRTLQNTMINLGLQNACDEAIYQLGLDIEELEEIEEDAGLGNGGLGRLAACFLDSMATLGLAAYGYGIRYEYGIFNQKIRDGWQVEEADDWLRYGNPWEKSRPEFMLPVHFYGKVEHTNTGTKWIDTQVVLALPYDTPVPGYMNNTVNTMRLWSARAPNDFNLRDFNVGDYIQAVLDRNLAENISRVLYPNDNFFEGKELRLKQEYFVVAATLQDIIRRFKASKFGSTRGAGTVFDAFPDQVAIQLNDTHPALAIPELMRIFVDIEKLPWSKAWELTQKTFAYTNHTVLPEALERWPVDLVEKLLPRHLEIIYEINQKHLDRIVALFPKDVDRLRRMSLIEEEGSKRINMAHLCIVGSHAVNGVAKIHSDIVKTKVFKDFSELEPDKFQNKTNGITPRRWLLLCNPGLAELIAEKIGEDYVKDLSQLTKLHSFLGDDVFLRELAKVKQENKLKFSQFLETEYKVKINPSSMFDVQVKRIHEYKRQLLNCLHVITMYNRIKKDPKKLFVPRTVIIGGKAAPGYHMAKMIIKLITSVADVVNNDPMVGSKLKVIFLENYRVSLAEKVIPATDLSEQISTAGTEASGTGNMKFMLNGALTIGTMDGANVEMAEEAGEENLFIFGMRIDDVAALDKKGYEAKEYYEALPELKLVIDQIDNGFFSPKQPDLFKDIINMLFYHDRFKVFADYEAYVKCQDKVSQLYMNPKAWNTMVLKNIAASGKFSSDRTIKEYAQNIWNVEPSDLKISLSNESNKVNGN
Also: in the data inactive means no Kd found up to 30 µM.

| Compound | Kd |
| --- | --- |
| Cc1ccc(NC(=O)c2ccc(CN3CC[C@H](N(C)C)C3)c(C(F)(F)F)c2)cc1Nc1nccc(-c2cncnc2)n1 [BAFETINIB] | > 30 µM (inactive) |
| COc1cc(OC)c(/C=C/S(=O)(=O)Cc2ccc(OC)c(NCC(=O)O)c2)c(OC)c1 [RIGOSERTIB] | > 30 µM (inactive) |
| C[C@@H]1CN(Cc2ccc(F)cc2)[C@@H](C)CN1C(=O)c1cc2c(C(=O)C(=O)N(C)C)cn(C)c2cc1Cl [TALMAPIMOD] | > 30 µM (inactive) |

molecular target: T2, Peroxisomal acyl-coenzyme A oxidase 3 (Homo sapiens, UniProt O15254); conditions: not given
T2 sequence (O15254 whole entry): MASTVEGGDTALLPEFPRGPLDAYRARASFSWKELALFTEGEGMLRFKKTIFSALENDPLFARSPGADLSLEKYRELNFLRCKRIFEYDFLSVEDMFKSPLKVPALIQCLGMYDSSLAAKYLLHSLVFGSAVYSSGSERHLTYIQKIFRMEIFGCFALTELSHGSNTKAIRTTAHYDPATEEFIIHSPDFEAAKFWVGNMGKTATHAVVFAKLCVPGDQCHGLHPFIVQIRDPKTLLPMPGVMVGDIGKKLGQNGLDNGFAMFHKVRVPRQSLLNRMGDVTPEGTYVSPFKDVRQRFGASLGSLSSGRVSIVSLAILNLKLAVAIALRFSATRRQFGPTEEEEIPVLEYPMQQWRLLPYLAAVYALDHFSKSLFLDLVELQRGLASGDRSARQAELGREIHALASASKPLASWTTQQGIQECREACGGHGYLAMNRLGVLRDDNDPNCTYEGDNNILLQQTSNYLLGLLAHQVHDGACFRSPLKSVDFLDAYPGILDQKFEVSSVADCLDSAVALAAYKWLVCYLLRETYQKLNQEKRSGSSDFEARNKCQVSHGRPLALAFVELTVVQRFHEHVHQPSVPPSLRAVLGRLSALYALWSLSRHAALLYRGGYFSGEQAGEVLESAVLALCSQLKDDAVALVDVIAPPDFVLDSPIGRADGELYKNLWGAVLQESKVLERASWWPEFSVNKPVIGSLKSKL

| Compound | Kd |
| --- | --- |
| Cc1ccc(NC(=O)c2ccc(CN3CC[C@H](N(C)C)C3)c(C(F)(F)F)c2)cc1Nc1nccc(-c2cncnc2)n1 [BAFETINIB] | > 30 µM (inactive) |
| COc1cc(OC)c(/C=C/S(=O)(=O)Cc2ccc(OC)c(NCC(=O)O)c2)c(OC)c1 [RIGOSERTIB] | > 30 µM (inactive) |
| C[C@@H]1CN(Cc2ccc(F)cc2)[C@@H](C)CN1C(=O)c1cc2c(C(=O)C(=O)N(C)C)cn(C)c2cc1Cl [TALMAPIMOD] | > 30 µM (inactive) |

molecular target: Activin receptor type-2B (Homo sapiens, UniProt Q13705); conditions: not given
Sequence (Q13705 whole entry): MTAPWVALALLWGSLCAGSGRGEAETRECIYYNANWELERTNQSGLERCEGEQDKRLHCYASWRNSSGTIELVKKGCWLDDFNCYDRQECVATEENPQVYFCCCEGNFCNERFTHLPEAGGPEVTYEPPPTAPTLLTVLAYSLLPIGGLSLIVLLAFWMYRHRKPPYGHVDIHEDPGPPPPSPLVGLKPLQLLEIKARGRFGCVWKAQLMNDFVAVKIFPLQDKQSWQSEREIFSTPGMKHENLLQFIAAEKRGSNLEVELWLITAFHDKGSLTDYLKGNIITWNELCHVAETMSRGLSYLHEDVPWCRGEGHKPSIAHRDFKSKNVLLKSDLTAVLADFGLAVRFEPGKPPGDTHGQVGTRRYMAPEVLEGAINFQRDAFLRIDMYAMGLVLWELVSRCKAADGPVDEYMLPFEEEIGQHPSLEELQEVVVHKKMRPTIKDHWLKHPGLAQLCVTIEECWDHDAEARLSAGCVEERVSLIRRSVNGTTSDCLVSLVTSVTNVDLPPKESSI

| Compound | Kd |
| --- | --- |
| Cc1ccc(NC(=O)c2ccc(CN3CC[C@H](N(C)C)C3)c(C(F)(F)F)c2)cc1Nc1nccc(-c2cncnc2)n1 [BAFETINIB] | > 30 µM (inactive) |
| COc1cc(OC)c(/C=C/S(=O)(=O)Cc2ccc(OC)c(NCC(=O)O)c2)c(OC)c1 [RIGOSERTIB] | > 30 µM (inactive) |
| C[C@@H]1CN(Cc2ccc(F)cc2)[C@@H](C)CN1C(=O)c1cc2c(C(=O)C(=O)N(C)C)cn(C)c2cc1Cl [TALMAPIMOD] | > 30 µM (inactive) |

molecular target: Serine/threonine-protein kinase MRCK beta (Homo sapiens, UniProt Q9Y5S2); conditions: not given
Sequence (Q9Y5S2 whole entry): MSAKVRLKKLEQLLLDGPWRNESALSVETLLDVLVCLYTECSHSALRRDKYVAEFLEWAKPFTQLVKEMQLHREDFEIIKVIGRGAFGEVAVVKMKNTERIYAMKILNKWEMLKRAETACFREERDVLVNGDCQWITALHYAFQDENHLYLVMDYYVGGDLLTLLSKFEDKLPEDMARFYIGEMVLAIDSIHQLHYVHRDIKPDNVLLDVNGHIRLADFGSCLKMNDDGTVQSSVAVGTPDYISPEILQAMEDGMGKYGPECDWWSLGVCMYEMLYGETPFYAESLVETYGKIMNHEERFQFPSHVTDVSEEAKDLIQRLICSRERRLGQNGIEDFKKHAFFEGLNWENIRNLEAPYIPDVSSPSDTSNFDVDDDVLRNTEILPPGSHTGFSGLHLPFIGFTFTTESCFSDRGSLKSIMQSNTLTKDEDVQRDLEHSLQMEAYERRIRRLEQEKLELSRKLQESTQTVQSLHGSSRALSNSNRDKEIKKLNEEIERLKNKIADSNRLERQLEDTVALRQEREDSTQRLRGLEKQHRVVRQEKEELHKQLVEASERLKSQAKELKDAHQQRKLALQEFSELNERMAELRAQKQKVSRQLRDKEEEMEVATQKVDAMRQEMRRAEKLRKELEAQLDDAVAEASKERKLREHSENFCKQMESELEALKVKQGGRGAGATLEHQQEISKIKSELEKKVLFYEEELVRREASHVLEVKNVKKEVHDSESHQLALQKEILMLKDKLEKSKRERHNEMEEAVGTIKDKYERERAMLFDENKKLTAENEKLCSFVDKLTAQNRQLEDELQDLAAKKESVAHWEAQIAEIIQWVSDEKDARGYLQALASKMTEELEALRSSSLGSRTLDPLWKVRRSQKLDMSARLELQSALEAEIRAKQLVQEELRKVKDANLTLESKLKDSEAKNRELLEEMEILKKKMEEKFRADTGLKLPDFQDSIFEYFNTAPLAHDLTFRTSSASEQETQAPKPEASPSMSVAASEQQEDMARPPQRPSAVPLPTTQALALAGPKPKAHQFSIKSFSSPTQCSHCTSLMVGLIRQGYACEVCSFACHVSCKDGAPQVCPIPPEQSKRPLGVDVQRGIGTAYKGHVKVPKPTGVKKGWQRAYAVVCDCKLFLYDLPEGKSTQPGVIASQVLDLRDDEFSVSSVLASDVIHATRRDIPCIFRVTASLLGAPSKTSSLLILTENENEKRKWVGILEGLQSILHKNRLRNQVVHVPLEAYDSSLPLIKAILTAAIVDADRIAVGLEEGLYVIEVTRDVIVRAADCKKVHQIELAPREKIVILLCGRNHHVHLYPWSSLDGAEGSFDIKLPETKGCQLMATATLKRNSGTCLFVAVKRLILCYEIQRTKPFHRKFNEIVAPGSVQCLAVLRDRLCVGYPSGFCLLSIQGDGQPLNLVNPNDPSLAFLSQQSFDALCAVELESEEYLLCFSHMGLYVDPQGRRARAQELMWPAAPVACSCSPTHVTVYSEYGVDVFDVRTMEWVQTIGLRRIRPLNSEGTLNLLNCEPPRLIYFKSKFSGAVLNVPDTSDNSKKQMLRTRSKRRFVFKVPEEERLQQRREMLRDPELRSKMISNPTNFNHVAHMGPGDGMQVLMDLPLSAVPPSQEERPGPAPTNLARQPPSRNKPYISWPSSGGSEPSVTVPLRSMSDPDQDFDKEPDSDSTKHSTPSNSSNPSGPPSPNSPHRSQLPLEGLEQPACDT

| Compound | Kd |
| --- | --- |
| Cc1ccc(NC(=O)c2ccc(CN3CC[C@H](N(C)C)C3)c(C(F)(F)F)c2)cc1Nc1nccc(-c2cncnc2)n1 [BAFETINIB] | > 30 µM (inactive) |
| COc1cc(OC)c(/C=C/S(=O)(=O)Cc2ccc(OC)c(NCC(=O)O)c2)c(OC)c1 [RIGOSERTIB] | > 30 µM (inactive) |
| C[C@@H]1CN(Cc2ccc(F)cc2)[C@@H](C)CN1C(=O)c1cc2c(C(=O)C(=O)N(C)C)cn(C)c2cc1Cl [TALMAPIMOD] | > 30 µM (inactive) |

molecular target: Cyclin-dependent kinase 4 (Homo sapiens, UniProt P11802); conditions: not given
Sequence (P11802 whole entry): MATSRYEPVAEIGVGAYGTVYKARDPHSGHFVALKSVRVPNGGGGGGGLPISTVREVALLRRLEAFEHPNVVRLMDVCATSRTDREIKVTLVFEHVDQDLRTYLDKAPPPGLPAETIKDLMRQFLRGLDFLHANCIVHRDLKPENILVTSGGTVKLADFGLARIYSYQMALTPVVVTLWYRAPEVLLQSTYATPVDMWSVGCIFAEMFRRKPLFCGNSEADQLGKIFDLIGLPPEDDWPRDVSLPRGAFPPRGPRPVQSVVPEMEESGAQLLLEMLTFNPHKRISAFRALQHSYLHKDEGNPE

| Compound | Kd |
| --- | --- |
| Cc1ccc(NC(=O)c2ccc(CN3CC[C@H](N(C)C)C3)c(C(F)(F)F)c2)cc1Nc1nccc(-c2cncnc2)n1 [BAFETINIB] | > 30 µM (inactive) |
| COc1cc(OC)c(/C=C/S(=O)(=O)Cc2ccc(OC)c(NCC(=O)O)c2)c(OC)c1 [RIGOSERTIB] | > 30 µM (inactive) |
| C[C@@H]1CN(Cc2ccc(F)cc2)[C@@H](C)CN1C(=O)c1cc2c(C(=O)C(=O)N(C)C)cn(C)c2cc1Cl [TALMAPIMOD] | > 30 µM (inactive) |

molecular target: T3, Delta(24)-sterol reductase (Homo sapiens, UniProt Q15392); conditions: not given
T3 sequence (Q15392 whole entry): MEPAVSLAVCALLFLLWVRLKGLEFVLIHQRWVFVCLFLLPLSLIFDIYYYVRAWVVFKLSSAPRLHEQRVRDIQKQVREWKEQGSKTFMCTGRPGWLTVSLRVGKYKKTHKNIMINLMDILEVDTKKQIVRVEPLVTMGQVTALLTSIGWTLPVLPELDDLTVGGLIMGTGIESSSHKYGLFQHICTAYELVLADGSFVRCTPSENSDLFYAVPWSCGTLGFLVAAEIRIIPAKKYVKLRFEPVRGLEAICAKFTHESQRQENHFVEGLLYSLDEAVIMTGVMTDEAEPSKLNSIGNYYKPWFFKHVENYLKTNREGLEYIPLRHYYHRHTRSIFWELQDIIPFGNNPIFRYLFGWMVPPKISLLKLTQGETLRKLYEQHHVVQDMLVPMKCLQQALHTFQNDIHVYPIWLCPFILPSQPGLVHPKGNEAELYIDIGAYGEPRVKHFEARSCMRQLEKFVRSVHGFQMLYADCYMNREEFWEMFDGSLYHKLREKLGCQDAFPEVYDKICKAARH

| Compound | Kd |
| --- | --- |
| Cc1ccc(NC(=O)c2ccc(CN3CC[C@H](N(C)C)C3)c(C(F)(F)F)c2)cc1Nc1nccc(-c2cncnc2)n1 [BAFETINIB] | > 30 µM (inactive) |
| COc1cc(OC)c(/C=C/S(=O)(=O)Cc2ccc(OC)c(NCC(=O)O)c2)c(OC)c1 [RIGOSERTIB] | > 30 µM (inactive) |

molecular target: Tyrosine-protein kinase Fyn (Homo sapiens, UniProt P06241); conditions: not given
Sequence (P06241 whole entry): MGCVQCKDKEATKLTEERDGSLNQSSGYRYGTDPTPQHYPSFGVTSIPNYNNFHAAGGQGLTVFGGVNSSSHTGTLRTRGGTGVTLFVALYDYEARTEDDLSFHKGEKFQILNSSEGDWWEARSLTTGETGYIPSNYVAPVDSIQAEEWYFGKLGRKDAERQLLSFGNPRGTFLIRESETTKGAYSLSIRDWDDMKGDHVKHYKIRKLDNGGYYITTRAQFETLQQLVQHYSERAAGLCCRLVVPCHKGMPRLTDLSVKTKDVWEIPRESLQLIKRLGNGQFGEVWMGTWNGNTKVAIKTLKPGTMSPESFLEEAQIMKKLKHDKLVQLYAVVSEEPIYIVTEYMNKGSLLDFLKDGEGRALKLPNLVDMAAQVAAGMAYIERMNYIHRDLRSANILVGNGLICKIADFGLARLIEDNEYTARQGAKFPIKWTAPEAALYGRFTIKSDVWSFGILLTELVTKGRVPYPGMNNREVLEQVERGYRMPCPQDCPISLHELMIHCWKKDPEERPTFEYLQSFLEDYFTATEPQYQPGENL

| Compound | Kd |
| --- | --- |
| Cc1ccc(NC(=O)c2ccc(CN3CC[C@H](N(C)C)C3)c(C(F)(F)F)c2)cc1Nc1nccc(-c2cncnc2)n1 [BAFETINIB] | 1.44 µM (active) |
| COc1cc(OC)c(/C=C/S(=O)(=O)Cc2ccc(OC)c(NCC(=O)O)c2)c(OC)c1 [RIGOSERTIB] | > 30 µM (inactive) |
| C[C@@H]1CN(Cc2ccc(F)cc2)[C@@H](C)CN1C(=O)c1cc2c(C(=O)C(=O)N(C)C)cn(C)c2cc1Cl [TALMAPIMOD] | > 30 µM (inactive) |

molecular target: Mitogen-activated protein kinase 8 (Homo sapiens, UniProt P45983); conditions: not given
Sequence (P45983 whole entry): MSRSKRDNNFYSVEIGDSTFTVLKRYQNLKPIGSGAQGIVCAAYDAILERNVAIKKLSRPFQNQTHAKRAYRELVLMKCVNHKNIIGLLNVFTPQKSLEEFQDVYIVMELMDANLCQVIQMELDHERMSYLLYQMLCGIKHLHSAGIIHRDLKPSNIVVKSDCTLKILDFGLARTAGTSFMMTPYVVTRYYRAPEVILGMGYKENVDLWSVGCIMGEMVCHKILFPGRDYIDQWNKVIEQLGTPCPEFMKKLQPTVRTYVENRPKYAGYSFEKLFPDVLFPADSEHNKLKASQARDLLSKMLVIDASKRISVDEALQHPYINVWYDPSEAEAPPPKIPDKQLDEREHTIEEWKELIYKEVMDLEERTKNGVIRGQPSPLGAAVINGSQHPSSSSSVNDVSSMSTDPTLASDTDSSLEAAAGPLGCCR

| Compound | Kd |
| --- | --- |
| Cc1ccc(NC(=O)c2ccc(CN3CC[C@H](N(C)C)C3)c(C(F)(F)F)c2)cc1Nc1nccc(-c2cncnc2)n1 [BAFETINIB] | > 30 µM (inactive) |
| COc1cc(OC)c(/C=C/S(=O)(=O)Cc2ccc(OC)c(NCC(=O)O)c2)c(OC)c1 [RIGOSERTIB] | > 30 µM (inactive) |
| C[C@@H]1CN(Cc2ccc(F)cc2)[C@@H](C)CN1C(=O)c1cc2c(C(=O)C(=O)N(C)C)cn(C)c2cc1Cl [TALMAPIMOD] | > 30 µM (inactive) |

molecular target: cAMP-dependent protein kinase catalytic subunit beta (Homo sapiens, UniProt P22694); conditions: not given

| Compound | Kd |
| --- | --- |
| Cc1ccc(NC(=O)c2ccc(CN3CC[C@H](N(C)C)C3)c(C(F)(F)F)c2)cc1Nc1nccc(-c2cncnc2)n1 [BAFETINIB] | > 30 µM (inactive) |
| COc1cc(OC)c(/C=C/S(=O)(=O)Cc2ccc(OC)c(NCC(=O)O)c2)c(OC)c1 [RIGOSERTIB] | > 30 µM (inactive) |
| C[C@@H]1CN(Cc2ccc(F)cc2)[C@@H](C)CN1C(=O)c1cc2c(C(=O)C(=O)N(C)C)cn(C)c2cc1Cl [TALMAPIMOD] | > 30 µM (inactive) |

molecular target: T4, Succinate--CoA ligase [ADP-forming] subunit beta, mitochondrial (Homo sapiens, UniProt Q9P2R7); conditions: not given
T4 sequence (Q9P2R7 whole entry): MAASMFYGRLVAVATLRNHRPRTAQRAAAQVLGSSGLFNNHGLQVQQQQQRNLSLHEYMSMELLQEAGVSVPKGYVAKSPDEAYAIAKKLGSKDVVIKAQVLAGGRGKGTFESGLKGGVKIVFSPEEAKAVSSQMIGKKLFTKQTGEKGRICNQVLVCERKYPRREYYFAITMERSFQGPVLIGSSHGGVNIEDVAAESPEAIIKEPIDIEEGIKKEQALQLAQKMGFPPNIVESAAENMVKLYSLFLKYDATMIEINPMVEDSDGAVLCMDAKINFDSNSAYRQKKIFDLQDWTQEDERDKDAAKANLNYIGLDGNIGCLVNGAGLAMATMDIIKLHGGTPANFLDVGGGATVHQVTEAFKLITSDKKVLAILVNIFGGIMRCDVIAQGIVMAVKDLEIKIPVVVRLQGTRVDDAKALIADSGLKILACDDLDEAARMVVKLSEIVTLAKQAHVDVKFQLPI

| Compound | Kd |
| --- | --- |
| Cc1ccc(NC(=O)c2ccc(CN3CC[C@H](N(C)C)C3)c(C(F)(F)F)c2)cc1Nc1nccc(-c2cncnc2)n1 [BAFETINIB] | > 30 µM (inactive) |
| C[C@@H]1CN(Cc2ccc(F)cc2)[C@@H](C)CN1C(=O)c1cc2c(C(=O)C(=O)N(C)C)cn(C)c2cc1Cl [TALMAPIMOD] | > 30 µM (inactive) |

molecular target: Tyrosine-protein kinase SYK (Homo sapiens, UniProt P43405); conditions: not given

| Compound | Kd |
| --- | --- |
| Cc1ccc(NC(=O)c2ccc(CN3CC[C@H](N(C)C)C3)c(C(F)(F)F)c2)cc1Nc1nccc(-c2cncnc2)n1 [BAFETINIB] | > 30 µM (inactive) |
| COc1cc(OC)c(/C=C/S(=O)(=O)Cc2ccc(OC)c(NCC(=O)O)c2)c(OC)c1 [RIGOSERTIB] | > 30 µM (inactive) |
| C[C@@H]1CN(Cc2ccc(F)cc2)[C@@H](C)CN1C(=O)c1cc2c(C(=O)C(=O)N(C)C)cn(C)c2cc1Cl [TALMAPIMOD] | > 30 µM (inactive) |
